Test results reported in patent US3954793A, “1-(2-Propynyl)-1 H-indazole compounds” (priority 1973, dated 1976).
Read-outs that look alike come from different tables or passages of the source.

Key:
[1] = tested on: Wilson strain house flies; format: in vivo, Wilson strain (susceptible); settings: for Contact Synergistic Ratio, Pyrolan: LC50 pyrolan alone / LC50 with synergist
Description: The required solutions of the insecticide and of the synergist compound were prepared in acetone at a concentration of 1 milligram per milliliter. One-pint wide mouth glass jars were coated with the appropriate insecticide-synergist combination by rolling the jars containing aliquots of the appropriate solutions diluted to three milliliters with acetone to deposit, by evaporation, a film of the test materials. The flies were transferred under carbon dioxide anesthesia and held in the jar at room temperature. Perforated aluminum foil was used to cover the jars and to hold cotton saturated with 10% sugar solution. Counts were made at intervals, but the recorded mortality was based on 24-hour kill, rather than knockdown. All prostrate non-moving flies were considered dead. A determination was then made of the contact synergistic ratio [SR], which is the ratio of the LC50 of insecticide alone to the LC50 of the insecticide when applied together with the synergist. The LC50 of the insecticide was estimated from a log-probit plot of percent kill versus dosage. […] The LC50 of the combination of insecticide and synergist was determined at a synergist to insecticide parts by weight ratio of five to one.

male mice = assay: extension of sleeping time of depressant drugs by synergists; format: in vivo, male mice (Swiss albino white); settings: for Mean Sleeping Time, Noludar / Relative Sleeping Time, Noludar: Noludar 110 mg/kg; for Relative Sleeping Time, Noludar / Relative Sleeping Time, Secobarbital: treated/control; for Mean Sleeping Time, Secobarbital / Relative Sleeping Time, Secobarbital: Secobarbital 37 mg/kg
Description: The selectivity of the synergist compounds of this invention is illustrated by the results of sleeping-time extension tests and of acute toxicity tests on Swiss albino white male mice.
The effect of various synergist compounds on sleeping time of sodium secobarbital [Secobarbital] and of 3,3-diethyl-5-methyl-2,4-dioxypiperidine [Noludar] was determined by administering the drug, with and without synergist, to approximately 38-day old male mice weighing from 25 to 30 grams. Synergists were administered in each of two doses, 74.0 mg/kg (dilution being 2.0 mg/0.1 ml corn oil), and 110.0 mg/kg (dilution 3.0 mg/0.1 ml oil). Secobarbital was administered at a dose of 37.0 mg/kg (dilution 1.0 mg/0.1 ml water). Noludar was administered at a dose of 110.0 mg/kg (dilution 3.0 mg/0.1 ml water). The synergist was administered one hour prior to administration of the Secobarbital or Noludar. Secobarbital and Noludar sleeping times were obtained for both the control (drug only) and the treated (synergist plus drug) mice by noting the time lapse between the administration of the drug and the recovery of the righting reflex, i.e. when the animal regains conciousness and can walk up an inclined wooden tray with coordination. The relative sleeping time (R.S.) was noted. The R.S. is the extended sleeping time in the treated mice (synergist plus drug) divided by the sleeping time in the control mice (drug only). The mean sleeping time for the treated mice and the R.S. are shown on Table XXXXIV for various synergist compounds.

[2] = tested on: Swiss albino, white male mice; assay: acute toxicity and synergism of acute toxicity in mice; format: in vivo; settings: 48 hours, eight mice
Description: To determine the acute toxicity of dimetilan alone, eight dosage levels of Dimetilan, ranging from 4 to 32 mg per kg were applied to eight, Swiss, albino, white, male mice per dosage level. The mice weighed approximately 23 to 27 grams and were five to six weeks old. The Dimetilan was administered intraperitoneally in 0.1 ml of corn oil one hour after the administration of the same dose of corn oil alone.
To determine the acute toxicity of the synergist alone, various synergists were administered intraperitoneally at a dose of 1000 mg/kg to each of a group of eight mice. The number of animals dead at the end of 72 hours is reported in the left hand column of Table XXXXVI.
The synergism of the acute toxicity of Dimetilan by various synergists was determined by tests on Swiss albino, white male mice aged five to six weeks and weighing 23 to 27 grams. The synergists and insecticides were dissolved in corn oil and the drugs were dissolved in distilled water. All compounds were administered intraperitoneally by injection in the lower quadrent of the abdomen. The synergist was administered in 0.1 ml of corn oil one hour prior to administration of the insecticide. Eight mice were treated, per dosage, with each synergist. The mice were watched for a minimum of 6 hours while held in a glass jar with bedding individually after intraperitoneal injection of the test solutions. Lethality was noted, the animals were weighed and transferred in cages, and food and water were supplied. Control mice were given 0.1 ml of corn oil at the time of administration of the synergist to the test mice and 0.1 ml corn oil plus Dimetilan at the time of administration of the insecticide to the test mice.
By the same procedure, the synergism of acute toxicity of GS 13005, Secobarbital and 6-dimethylamino-4,4-diphenyl-3-heptanone [Methadone] was determined.

[3] = tested on: IN/WHO strain house flies; assay: topical application, percent kill after 24 hours, susceptible IN/WHO strain; format: in vivo, female); settings: for percent kill after 24 hours, synergist alone (GS 13005 part of Table XXXI): GS 13005 0, synergist 1 μg/fly; for percent kill after 24 hours, with GS 13005: GS 13005 0.10 + synergist 0.50 μg/fly; for percent kill after 24 hours, with Mobam: Mobam 0.20 + synergist 1 μg/fly; for percent kill after 24 hours, synergist alone: insecticide 0, synergist 1 μg/fly
Description: (§1) In Table IX, and in the tables following it, the doses of topically applied insecticides and of synergists unless otherwise noted are expressed as micrograms per fly (μg/fly).
(§2) The synergistic effect of O-(2-propynyl) oximes with mobam was determined from topical application tests on susceptible, female, IN/WHO strain house flies and from tests on resistant, female, Rutgers A strain house flies. The synergist and insecticide were dissolved in ACS Grade acetone in such quantities that a 1.0 μ liter volume applied to the thorax of 3-to-5 day old CO2 -anesthetized female adult house flies contained the desired dosage. After being treated, the flies were confined, 10 to a plaster petri dish, with 3-5 dishes/treament, and held for 24-hr. observation of mortality. Reconstituted skim milk on cotton dental wicks was provided during the holding period. The percent kills after 24 hours are shown in Table X for the IN/WHO strain and Table XI for the Rutgers A strain.
(§3) The synergistic effect of benzyl 2-propynyl ethers with mobam was determined from topical application tests on IN/WHO and Rutgers A strain houseflies, following the procedure of Example 5. The percent kills after 24 hours are shown in Table XIV for the IN/WHO strain and in Table XV for the Rutgers A strain.
The effects of varying the insecticide dose and the synergist-insecticide ratio are further illustrated, with synergist compounds II-D, II-E, II-F and Mobam insecticide, in Tables XVI, XVII and XVIII. […]
The effect on IN/WHO flies of synergist compound IV-C, identified in Table IV, with mobam was determined by the topical application procedure of Example 5. […]
(§4) The synergistic effect with GS 13005 of compounds I-A, I-B, I-D, I-E, I-F, I-G and I-I was determined from topical application tests to IN/WHO strain, Rutgers A strain and polyvalent CH strain houseflies using the procedures of Example 5. The percent kills of the IN/WHO strain flies after 24 hours are shown in Table XXVIII; of the Rutgers A strain, in Table XXIX; and of the polyvalent CH strain, in Table XXX. The doses of insecticide alone to the CH strain files caused 10-40% mortality.
The synergistic effect with Diazinon and GS 13005 of various of the benzyl 2-propynyl ethers identified in Tables II and IIa was determined by topical application tests on IN/WHO strain, and Rutgers A strain and polyvalent, resistant, CH strain houseflies using the procedures of Example 5. The percent kills after 24 hours of IN/WHO strain flies are shown in Table XXXI; of Rutgers A strain flies, in Table XXXII; and of CH strain flies, in Table XXXIII. The doses of insecticide alone to the CH strain flies caused 10-40% mortality. […]
(§5) The synergistic effect on IN/WHO strain flies and Rutgers A strain flies of compound IV-C with GS 13005 and with Diazinon was determined by the topical application procedure of Example 5. The percent kills of IN/WHO strain flies after 24 hours are shown in Tables XXXVI and XXXVII; the percent kills of Rutgers A strain flies are shown in Tables XXXVIII and XXXIX.

[4] = tested on: Rutgers A strain house flies; assay: topical application, percent kill after 24 hours, resistant Rutgers A strain; format: in vivo, female); settings: for percent kill after 24 hours, with GS 13005: GS 13005 1.0 + synergist 5.0 μg/fly; for percent kill after 24 hours, synergist alone: insecticide 0, synergist 5.0 μg/fly
Description: as §1, §2, §3
The synergistic effect with Diazinon of compounds I-B, I-D, I-F, I-G, I-H and I-I, identified in Tables I and Ia, was determined from topical application tests on IN/WHO strain houseflies and on Rutgers A strain houseflies by the procedure of Example 5. The percent kills after 24 hours are shown in Table XXV for the IN/WHO strain and Table XXVI for the Rutgers A strain.
as §4
The synergistic effect with Diazinon and GS 13005 of various of the benzyl 2-propynyl ethers identified in Tables II and IIa was determined by topical application tests on IN/WHO strain, and Rutgers A strain and polyvalent, resistant, CH strain houseflies using the procedures of Example 5. The percent kills after 24 hours of IN/WHO strain flies are shown in Table XXXI; of Rutgers A strain flies, in Table XXXII; and of CH strain flies, in Table XXXIII. The doses of insecticide alone to the CH strain flies caused 10-40% mortality.
as §5

[5] = synergist to insecticide 5:1 by weight
[6] = synergist 110 mg/kg one hour prior
[7] = synergist 74 mg/kg one hour prior
[8] = Dimetilan 8 + synergist 240 mg/kg i.p.
[9] = Dimetilan 8 + synergist 80 mg/kg i.p.

Structure (SMILES)	Contact Synergistic Ratio, Pyrolan [1, 5]	Contact Synergistic Ratio, Carbaryl ([1]; in vivo)	Mean Sleeping Time, Noludar (male mice; [6]) [min]	Relative Sleeping Time, Noludar (male mice; synergist 110 mg/kg)	Mean Sleeping Time, Secobarbital (male mice; [6]) [min]	Relative Sleeping Time, Secobarbital (male mice; synergist 110 mg/kg)	number of mice dead, with Dimetilan [2, 8]	further results
C#CCON=Cc1ccc(N(C)C)cc1 [I-C]	20	200	34	1.0	108	1.8	0	Mean Sleeping Time, Secobarbital (male mice; [7]): 30 min; Relative Sleeping Time, Secobarbital (male mice; synergist 74 mg/kg): 1.1
C#CCOCc1ccc(Cl)cc1 [II-A]	7	50						
C#CCOCc1ccc(Cl)cc1Cl [II-B]	15	50						
C#CCOCc1ccc2c(c1)OCO2 [II-G]	15							Contact Synergistic Ratio, Carbaryl ([1]; LC50 carbaryl alone / LC50 with synergist, synergist to insecticide 5:1 by weight): 100
C#CCOCc1ccc(Cl)c([N+](=O)[O-])c1 [II-M]			47	2.1	47	2	3	percent kill after 24 hours, synergist alone (GS 13005 part of Table XXXI) [3]: 10%; percent kill after 24 hours, with GS 13005 [3]: 79%; percent kill after 24 hours, with Mobam [3]: 90%; percent kill after 24 hours, synergist alone [3]: 10%; percent kill after 24 hours, with GS 13005 [4]: 63%; percent kill after 24 hours, synergist alone [4]: 0%; Mean Sleeping Time, Secobarbital (male mice; [7]): 29 min; Relative Sleeping Time, Secobarbital (male mice; synergist 74 mg/kg): 1.0; number of mice dead, with Dimetilan [2, 9]: 0
C#CCOCc1ccc([N+](=O)[O-])cc1Cl [II-N]			58	1.9	39	1.7	4	percent kill after 24 hours, with GS 13005 [3]: 84%; percent kill after 24 hours, with Mobam [3]: 97%; percent kill after 24 hours, with GS 13005 [4]: 60%; Mean Sleeping Time, Secobarbital (male mice; [7]): 20 min; Relative Sleeping Time, Secobarbital (male mice; synergist 74 mg/kg): 1.0; number of mice dead, with Dimetilan [2, 9]: 0
C#CCOCc1ccc([N+](=O)[O-])c(Cl)c1 [II-O]			52	2.4	26	1.1	2	percent kill after 24 hours, synergist alone (GS 13005 part of Table XXXI) [3]: 10%; percent kill after 24 hours, with GS 13005 [3]: 90%; percent kill after 24 hours, with Mobam [3]: 60%; percent kill after 24 hours, synergist alone [3]: 10%; percent kill after 24 hours, with GS 13005 [4]: 47%; percent kill after 24 hours, synergist alone [4]: 3%; number of mice dead, with Dimetilan [2, 9]: 0
C#CCn1ncc2cc([N+](=O)[O-])ccc21 [III-A]	30	143	32	1.0	50	1.1	0	
C#CCn1nc(Cl)c2ccccc21 [III-B]	30	117	46	1.0	66	1.3	0	
C#CCn1nc(Cl)c2ccc([N+](=O)[O-])cc21 [III-C, N-(2-propynyl)-3-chloro-6-nitroindazole]	10	53						
C#CCOC(c1cccc2ccccc12)C(C)[N+](=O)[O-] (stereo not drawn) [IV-B, 2-propynyl 1-naphthyl-2-nitropropyl ether]	10	50						
Cc1cc(OC(=O)N(C)C)n(-c2ccccc2)n1 [Pyrolan, 3-methyl-1-phenyl-5-pyrazolyl-N-dimethylcarbamate, reference compound]								24 hour percent mortality, Pyrolan alone ([3]; Pyrolan 0.63 μg/fly): 0%; LC50 of insecticide alone ([1]; Wilson strain fly, 24-hour kill, no synergist): 0.15 mg/jar
